Where a name gives a salt, the structure may show the parent alone. No end group written: not given here.
Tests used:
[1] = tested on: MOLM-13 cells; assay: Effect of co-delivery system on the activity of MOLM-13 cells (CCK-8); format: cell-based; conditions: human, 24 h
Experimental: The following experimental groups were set and stock solutions for experiment were configured, including:
1) Polypeptide PO-6 group (PO-6): polypeptide stock solution obtained in Example 1 (polypeptide concentration is 1 mM);
2) Doxorubicin (Dox) group: doxorubicin hydrochloride was dissolved in sterile water to obtain 1 mg/mL (1.7 mM) Dox stock solution;
3) High polymer group (mPEG2000-PCL2000): 15 mg mPEG2000-PCL2000 powder was weighted and dissolved with 1 mL PBS solution to obtain 15 mg/mL (3.3 mM) mPEG2000-PCL2000 stock solution.
4) Polypeptide PO-6 and Dox combination group (PO-6+Dox): the polypeptide stock solution in experimental group 1) and the Dox stock solution in experimental group 2) were diluted with PBS solution respectively, then mixed to obtain a mixed solution. The concentration of polypeptide was 36.2 μM, the concentration of Dox was 17.24 μM, and the weight ratio of polypeptide PO-6 to Dox was 10:1 in the mixed solution; […]
Experimental procedure: MOLM-13 cells were inoculated in 96-well U-shaped plates with 8×10^4 cells per well. […] The absorbance values (OD value) at wavelengths of 450 nm and 630 nm were measured by a microplate reader, and the percent viability of cells was calculated according to Formula 1, and the control group was the cells without drug treatment, denoted as Con; […]

[2] = tested on: HUVEC cells; assay: Effect of co-delivery system on the activity of HUVEC cells (CCK-8); format: cell-based, human; conditions: Dox 0.1 μM, polypeptide 2.1 μM, 24 hours, CCK8
Experimental: (§1) HUVEC cells were inoculated in 96-well plates with 1×10^4 cells per well, and grouping was the same as experiment 8. Corresponding drug stock solutions were added into each well in each experimental group to make the final Dox concentration of each well is 0.1 μM and the final corresponding polypeptide concentration of each well is 2.1 μM. Incubated at 37° C. in 5% CO2 incubator for 24 hours, then washed with PBS, and 110 μL CCK8 diluent (including 100 μL RPMI 1640 medium+10 μL CCK-8) was added in each well, followed by incubation for 2 h. The absorbance values (OD value) at wavelengths of 450 nm and 630 nm were measured by a microplate reader, and the percent viability of cells was calculated according to Formula 1, and the control group was the cells without drug treatment, denoted as Con.

[3] = as above; format: cell-based, human; conditions: human, Dox 0.1 μM, polypeptide 2.1 μM, CCK8, read-out: percent viability of cells
Experimental: as §1

[4] = tested on: MOLM-13 cells (CD123-positive); assay: Polypeptide binding to MOLM-13 cells by flow cytometry; conditions: FITC-labeled polypeptide 0.5, 1, 5 and 10 μM, 37° C., 0.5 h
Experimental: (§2) MOLM-13 and K562 cells were inoculated into 48-well plates with 2×10^5 cells per well, respectively, and FITC-labeled polypeptides listed in Table 1 were added to make the final concentrations of polypeptides were 0.5 μM, 1 μM, 5 μM and 10 μM, respectively. Incubate at 37° C. in 5% CO2 incubator for 0.5 h. After incubation, washed once with PBS solution, centrifuged at 1500 rpm for 5 min, and the supernatant was discarded, and 100 μL PBS solution was added to each well to re-suspend the cells, and 300 mesh sieve was used for filtration. Flow cytometry was used for determination of the mean fluorescence intensity (MFI) of MOLM-13 and K562 cells, and MFI was used as indication of the binding quantity of polypeptide on cells. FIGS. 2 and 3 show the quantity of polypeptides bound to cells.

[5] = tested on: MOLM-13 cells; assay: Binding of polypeptide, polypeptide complex to MOLM-13 observed by laser scanning confocal microscope; conditions: FITC-labeled, polypeptide 0.5 μM, 0.5 h
Experimental: MOLM-13 cells (2×10^5 cells per well) were incubated with FITC-labeled polypeptides (taking PO-6, and PO-6N as examples) and polypeptide complexes (see Table 2) at 37° C. for 30 min, and the final concentration of polypeptides was 0.5 μM (the final concentration of polypeptides in the cultivation system of polypeptide complexes was also 0.5 μM). After incubation, the cells were collected and washed twice with PBS solution, centrifuged at 1500 rpm for 5 min, and the supernatant was discarded. 400 μL paraformaldehyde in PBS aqueous solution (containing 4 wt % paraformaldehyde) was added to each well, and they were placed in dark at room temperature for 30 min, so that the cells were fixed by paraformaldehyde. washed once with PBS solution, centrifugated at 2000 rpm for 5 min, and the cells were dropped on the glass slide to dry naturally, and then was sealed with a mounting medium containing DAPI (4′, 6-diamidino-2-phenylindole). Laser scanning confocal microscope (Ex=488 nm (FITC); Ex=405 nm (DAPI)) was used for observation and photographing. MOLM-13 cells without any treatment were taken as the control group, i.e., Con. Photos of polypeptide PO-6 and PO-6N and corresponding polypeptide complexes (taking C-1 and C-1′ as examples) are shown in FIG. 9 and FIG. 10. […]

[6] = tested on: K562 cells (CD123-negative); assay: Polypeptide binding to K562 cells by flow cytometry; conditions: FITC-labeled polypeptide 0.5, 1, 5 and 10 μM, 37° C., 0.5 h
Experimental: as §2

## COc1cccc2c1C(=O)c1c(O)c3c(c(O)c1C2=O)C[C@@](O)(C(=O)CO)C[C@@H]3O[C@H]1C[C@H](N)[C@H](O)[C@H](C)O1 [Dox, doxorubicin hydrochloride, reference compound]
[1]; 0.1 μM
  percent viability of cells: 57%
[2]
  percent viability of cells: about 50%

## DDDYDTRAQGTDIGCDFRRISDDD [PO-6]
[1]; 0.21 μM
  percent viability of cells: 98%
[3]
  viability at 24 h, 2.1 µM: > 90%

## GGDDDYDTRAQGTDIGNDFRRISDDD [PO-6N]
[4]
  binding quantity to MOLM-13 cells (mean fluorescence intensity of FITC): can bind
[5]
  green fluorescence on the cell surface compared with Con: obvious green fluorescence
[6]
  binding quantity to K562 cells (mean fluorescence intensity of FITC): very weak

Source: patent US20230250183A1, “POLYPEPTIDE THAT SPECIFICALLY BINDING TO CD123 PROTEIN, POLYPEPTIDE COMPLEXE, CO-DELIVERY SYSTEM AND PREPARATION METHOD AND USE THEREOF” (Institute of Basic Medical Sciences Chinese Academy of …, priority 2020, published 2023)
